US20030224422A1, “Pre-and post therapy gene expression profiling to identify drug targets” (St. Jude Children's Research Hospital, Inc., priority 2002, published 2003)

Test system: bone marrow leukemic blasts obtained from children with ALL
Experiment: Oligonucleotide microarray (Affymetrix HG-U95A) fold-change in gene expression, post-treatment vs diagnosis, in patients in vivo
Set-up: species or system human
Conditions: for number of genes that were down-regulated after single agent / number of genes that were up-regulated (increased) after single agent: changed by >50% in over 70% of patients; for number of genes that changed expression by at least 50%: in over 70% of patients treated
Description: To elucidate genomic determinants of leukemia response to chemotherapy, oligonucleotide microarrays (Affymetrix® HG-U95A GeneChip) were used to analyze expression of approximately 9,600 human genes in bone marrow leukemic blasts obtained from children with ALL, at diagnosis and one day post-treatment with mercaptopurine (1 gm/^2 IV) or methotrexate (MTX) given alone (1 gm/m^2 IV), or mercaptopurine (6-MP) in combination with either low-dose MTX [180 mg/m^2 orally] or high-dose MTX [[…]]). A stratified (immunophenotype, DNA ploidy) randomization was used to assign treatment, and the fold-change in gene expression (post-treatment to diagnosis) was computed for 60 patients. Using linear discriminate analysis with variance (LDAV) genes that most discriminated among treatments were selected based on expression changes (fold-change from diagnosis to post-treatment) or based on post-treatment expression levels alone. […] Leave-one-out cross-validation using support-vector-machine (SVM), based on the 120 most discriminating genes, correctly classified 60 out of 60 patients (100%) based on fold-change versus 58 out of 60 (96.7%) using only post-treatment expression profiles. The smallest number of genes for discrimination among treatments was 120 using fold-change, which included genes involved in cellular processes such as apoptosis, cell cycle control and stress response. Together, these in vivo data reveal unique, treatment-specific changes in gene expression in primary leukemia cells, establishing that changes in expression differ according to the specific medication, dosage and combination given. These findings provide new insights to cancer cell responses to chemotherapy and can be used to illuminate mechanisms of leukemia resistance and identify novel targets to augment existing treatment modalities.
Primary leukemia cells. This study included 60 patients with ALL enrolled on St. Jude Children's Research Hospital Total Therapy Studies XIIIB and XV. Bone marrow samples were obtained at diagnosis (pre-treatment) and one day post-treatment with mercaptopurine (6-MP) or methotrexate (MTX) given alone, or mercaptopurine in combination with either low-dose MTX (LDMTX/6-MP) or high-dose MTX (HDMTX/6-MP). A stratified (immunophenotype, DNA ploidy) randomization was used to assign treatment. Total RNA was extracted from cryopreserved mononuclear cell suspensions with TriReagent (MRC, Cincinnati, Ohio).
Mircoarray analysis. High quality RNA was hybridized to Affymetrix HG-U95A GeneChipe (12,600 probe sets, ˜9,600 human genes) according to the manufacturers protocol (Affymetrix, Santa Clara, Calif.). Scaled gene expression values for pre-treatment, post-treatment and fold-change (post-treatment vs. pre-treatment ratio) were calculated using Affymetrix Microarray Suite® (MAS) 5.0.
Gene expression data analysis. Analysis was done on fold-change and on post-treatment expression. The data were log-transformed and probe sets were filtered out if “absent” in all 120 arrays or if “no change” in all 60 fold-change ratios. Principal component analysis (PCA) and 2D-hierarchical clustering was performed using GeneMath 1.5 (AppliedMaths, Belgium). We applied supervised methods to find the most discriminating genes, including Linear Discriminant Analysis with Variance (LDAV) (GeneMaths) and ANOVA. Probe sets were ranked according to their discriminating power. To establish that these genes could classify treatments and to find significant genes, leave-one-out cross-validation was performed by support vector machine (SVM) with the top ranked probe sets. […] The p-value is defined as the probability of observing a misclassification rate less or equal to that in the experimental data. 250 permutations were performed. To distinguish one treatment from the other treatments, distinction calculation (Spotfire 6.3, Somerville, Mass.) was performed for each probe set. Permutations (n=1000) were performed to obtain the p-values. […]

Row | SMILES | difference in gene expression between infusion for 24 h and infusion for 4 h (HDMTX 24 h vs 4 h infusion, data pooled) | number of genes that were down-regulated after single agent | number of genes that were up-regulated (increased) after single agent | number of genes that changed expression by at least 50%
1 | CN(Cc1cnc2nc(N)nc(N)c2n1)c1ccc(C(=O)N[C@@H](CCC(=O)O)C(=O)O)cc1 [HDMTX, Methotrexate] | No difference | 59 genes | 38 genes | 97 genes
2 | S=c1nc[nH]c2nc[nH]c12 [MP, Mercaptopurine] | – | 40 genes | 158 genes | 197 genes
